Assay results reported in ChEMBL document CHEMBL3875215, “Neuritogenic activity of bi-functional bis-tryptoline triazole” (Bioorg Med Chem, 2017).
Activity calls are given as the source filed them. The rule behind the calls is not given here.

Tests used:
[1] = Cytotoxicity against mouse P19 derived neurons assessed as cell viability at 10000 nM after 18 hrs by XTT assay relative to control; format: toxicity; conditions: read-out: Activity
[2] = biological target: T1, Beta-secretase 1 (Homo sapiens, UniProt P56817); assay: Inhibition of BACE1 (unknown origin) using beta-secretase substrate 4 after 30 mins by fluorescence spectrophotometric method
T1 sequence (P56817 whole entry): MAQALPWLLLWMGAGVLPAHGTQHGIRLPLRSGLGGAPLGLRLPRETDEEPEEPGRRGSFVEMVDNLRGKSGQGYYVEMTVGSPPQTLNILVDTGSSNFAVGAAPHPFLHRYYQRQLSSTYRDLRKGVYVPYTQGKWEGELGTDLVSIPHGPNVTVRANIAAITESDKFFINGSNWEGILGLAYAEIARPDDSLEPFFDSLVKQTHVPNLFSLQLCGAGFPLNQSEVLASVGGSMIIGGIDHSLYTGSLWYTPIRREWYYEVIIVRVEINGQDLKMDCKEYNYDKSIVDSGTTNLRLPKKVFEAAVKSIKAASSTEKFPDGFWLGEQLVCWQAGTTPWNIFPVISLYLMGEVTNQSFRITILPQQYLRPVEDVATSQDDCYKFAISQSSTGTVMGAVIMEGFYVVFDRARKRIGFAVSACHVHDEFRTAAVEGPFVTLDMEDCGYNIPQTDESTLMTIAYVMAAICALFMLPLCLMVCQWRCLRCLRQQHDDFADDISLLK

[3] = Cytotoxicity against mouse P19 derived neurons assessed as cell viability at 100 nM after 18 hrs by XTT assay relative to control; format: toxicity; conditions: read-out: Activity
[4] = Cytotoxicity against mouse P19 derived neurons assessed as cell viability at 10 nM after 18 hrs by XTT assay relative to control; format: toxicity; conditions: read-out: Activity
[5] = system: P19; assay: Neuritogenic activity in mouse P19 derived neurons assessed as increase in neurite length at 1 nM after 18 hrs by phase contrast microscopic method relative to control; format: functional
[6] = biological target: T2, Amyloid-beta precursor protein (Homo sapiens, UniProt P05067); assay: Inhibition of human amyloid beta (1 to 42) aggregation incubated for 48 hrs under dark condition by ThT fluorescence assay
T2 sequence (P05067 whole entry): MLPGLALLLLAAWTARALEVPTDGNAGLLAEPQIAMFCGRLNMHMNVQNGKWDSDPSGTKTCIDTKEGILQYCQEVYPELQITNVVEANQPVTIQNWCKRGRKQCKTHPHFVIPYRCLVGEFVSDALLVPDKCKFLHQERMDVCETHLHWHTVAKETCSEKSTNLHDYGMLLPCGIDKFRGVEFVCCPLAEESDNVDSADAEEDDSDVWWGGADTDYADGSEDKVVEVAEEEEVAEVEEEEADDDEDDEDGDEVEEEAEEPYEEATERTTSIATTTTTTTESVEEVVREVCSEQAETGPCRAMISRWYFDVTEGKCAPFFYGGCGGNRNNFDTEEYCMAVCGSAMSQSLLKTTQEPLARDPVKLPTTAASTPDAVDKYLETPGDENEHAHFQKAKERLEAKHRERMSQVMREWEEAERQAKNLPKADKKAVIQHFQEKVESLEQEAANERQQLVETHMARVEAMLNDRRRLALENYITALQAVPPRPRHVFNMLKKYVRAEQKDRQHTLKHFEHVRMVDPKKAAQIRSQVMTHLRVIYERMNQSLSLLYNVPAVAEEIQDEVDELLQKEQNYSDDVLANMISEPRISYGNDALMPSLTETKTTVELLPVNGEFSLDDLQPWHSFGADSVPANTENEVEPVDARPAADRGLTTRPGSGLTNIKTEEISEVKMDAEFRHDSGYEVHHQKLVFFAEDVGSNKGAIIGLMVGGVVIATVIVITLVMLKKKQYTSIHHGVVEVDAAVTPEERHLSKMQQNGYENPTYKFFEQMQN

[7] = biological target: T1, Beta-secretase 1; assay: Inhibition of BACE1 (unknown origin) at 25 uM using beta-secretase substrate 4 after 30 mins by fluorescence spectrophotometric method relative to control
[8] = system: SH-SY5Y; assay: Neuroprotective activity against aggregated amyloid beta-induced toxicity in human SH-SY5Y cells assessed as increase in cell viability at 1 to 10 uM preincubated for 2 hrs followed by aggregated amyloid beta addition measured after 24 hrs by MTT assay; format: functional, cell-based
[9] = Cytotoxicity against mouse P19 derived neurons assessed as cell viability at 1 nM after 18 hrs by XTT assay relative to control; format: toxicity; conditions: read-out: Activity
[10] = Cytotoxicity against mouse P19 derived neurons assessed as cell viability at 1000 nM after 18 hrs by XTT assay relative to control; format: toxicity; conditions: read-out: Activity
[11] = Antioxidant activity assessed as inhibition of DPPH radical at 100 uM incubated for 30 mins under dark condition relative to control; format: functional
[12] = system: P19; assay: Neuritogenic activity in mouse P19 derived neurons assessed as increase in neurite number at 1 nM after 18 hrs by phase contrast microscopic method relative to control; format: functional
[13] = biological target: T2, Amyloid-beta precursor protein; assay: Inhibition of human amyloid beta (1 to 42) aggregation at 100 uM incubated for 48 hrs under dark condition by ThT fluorescence assay relative to control
[14] = biological target: T2, Amyloid-beta precursor protein; assay: Inhibition of amyloid beta (1 to 42) aggregation (unknown origin)

Structure (SMILES): OC[C@@H]1Cc2c([nH]c3ccccc23)CN1Cc1cn(C[C@@H]2Cc3c([nH]c4ccccc34)CN2)nn1
- viability at 18 h, 10 µM [1]: 124%
- IC50 [2]: 16.7 µM
- viability at 18 h, 0.1 µM [3]: 129%
- viability at 18 h, 0.01 µM [4]: 131%
- Activity [5]: 93.25%
- IC50 [6]: 66.4 µM
- inhibition [7]: 67.5%
- Activity [8]: Active
- viability at 18 h, 0.001 µM [9]: 131%
- viability at 18 h, 1 µM [10]: 131%
- inhibition [11]: 8.46%
- Activity [12]: 136.09%
- inhibition [13]: 80.2%

Structure (SMILES): N[C@@H](Cc1c[nH]c2ccccc12)Cn1cc(CNC(=O)/C=C/c2ccc(O)c(O)c2)nn1
- viability at 18 h, 10 µM [1]: 140%
- viability at 18 h, 0.1 µM [3]: 135%
- viability at 18 h, 0.01 µM [4]: 130%
- Activity [5]: 62.21%
- inhibition [7]: 40%
- viability at 18 h, 0.001 µM [9]: 133%
- viability at 18 h, 1 µM [10]: 129%
- inhibition [11]: 50.6%
- Activity [12]: 131.74%
- inhibition [13]: 81.5%

Structure (SMILES): O=c1c(O)c(-c2ccc(O)c(O)c2)oc2cc(O)cc(O)c12 [QUERCETIN]
- Activity [5]: 58.37%
- Activity [12]: 40.43%
- IC50 [14]: 7.94 µM

Structure (SMILES): N[C@@H](Cc1c[nH]c2ccccc12)Cn1cc(-c2ccc(Cl)c(Cl)c2)nn1
- viability at 18 h, 10 µM [1]: 93.8%
- viability at 18 h, 0.1 µM [3]: 116%
- viability at 18 h, 0.01 µM [4]: 128%
- Activity [5]: 84.13%
- inhibition [7]: 61.5%
- viability at 18 h, 0.001 µM [9]: 139%
- viability at 18 h, 1 µM [10]: 108%
- inhibition [11]: 0%
- Activity [12]: 118.7%
- inhibition [13]: 67.6%

Structure (SMILES): COC1=C2C[C@@H](C)C[C@H](OC)[C@H](O)[C@@H](C)/C=C(\C)[C@H](OC(N)=O)[C@@H](OC)/C=C\C=C(/C)C(=O)NC(=CC1=O)C2=O [GELDANAMYCIN]
- Activity [5]: 59.14%
- Activity [12]: 55.22%

Structure (SMILES): O=C(/C=C/c1ccc(O)c(O)c1)NCc1cn(C[C@@H]2Cc3c([nH]c4ccccc34)CN2)nn1
- viability at 18 h, 10 µM [1]: 140%
- IC50 [2]: > 50 µM
- viability at 18 h, 0.1 µM [3]: 125%
- viability at 18 h, 0.01 µM [4]: 139%
- Activity [5]: 57.54%
- inhibition [7]: 21.7%
- viability at 18 h, 0.001 µM [9]: 130%
- viability at 18 h, 1 µM [10]: 120%
- inhibition [11]: 92.3%
- Activity [12]: 123.04%
- inhibition [13]: 84.1%
